Data taken from US10174016B2 (BAYER AKTIENGESELLSCHAFT, priority 2014, dated 2019).
Where two headings read alike, the source gives them in different places.

Experiments:
[1] = target: human P2X2/3 receptor (Homo sapiens (Human), UniProt P56373+Q9UBL9); test: Intracellular calcium measurement (FLIPR, Fluo-4) of antagonist activity at human P2X2/3 receptors; assay type: cell-based
Summary of the method: (§1)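 Antagonism quantified from peak calcium fluorescence (Fluo-4, FLIPR, 90 sec read) evoked by EC80 α,β-Me-ATP, after a 30 min, 37° C. compound pretreatment in 1% DMSO. Human P2X3- or P2X2/3-expressing cells used; triplicate means fitted for IC50, percent maximal inhibition and Hill coefficient.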

[2] = target: human P2X3 receptor (Homo sapiens (Human), UniProt P56373); test: Intracellular calcium measurement (FLIPR, Fluo-4) of antagonist activity at human P2X3 receptors; assay type: cell-based; details: read-out: hP2X3 IC50
Summary of the method: as §1

[3] = human P2X2/3, FLIPR calcium assay, agonist α,β-Me-ATP, read-out: hP2X2/3 IC50
[4] = human P2X3, FLIPR calcium assay, agonist α,β-Me-ATP

human P2X3 receptor, sequence (P56373 whole entry): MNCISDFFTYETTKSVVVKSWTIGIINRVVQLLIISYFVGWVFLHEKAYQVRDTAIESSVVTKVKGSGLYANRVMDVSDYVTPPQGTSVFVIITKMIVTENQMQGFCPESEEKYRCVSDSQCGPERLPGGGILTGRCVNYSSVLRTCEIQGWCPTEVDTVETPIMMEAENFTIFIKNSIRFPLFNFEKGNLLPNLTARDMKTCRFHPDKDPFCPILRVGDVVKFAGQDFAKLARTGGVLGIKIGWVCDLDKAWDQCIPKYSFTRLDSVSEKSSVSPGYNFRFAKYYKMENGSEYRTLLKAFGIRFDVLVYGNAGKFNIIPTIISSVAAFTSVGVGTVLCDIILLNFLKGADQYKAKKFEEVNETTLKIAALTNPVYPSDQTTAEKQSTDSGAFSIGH
human P2X2/3 receptor, sequence (P56373 whole entry): as above
human P2X2/3 receptor, sequence (Q9UBL9 whole entry): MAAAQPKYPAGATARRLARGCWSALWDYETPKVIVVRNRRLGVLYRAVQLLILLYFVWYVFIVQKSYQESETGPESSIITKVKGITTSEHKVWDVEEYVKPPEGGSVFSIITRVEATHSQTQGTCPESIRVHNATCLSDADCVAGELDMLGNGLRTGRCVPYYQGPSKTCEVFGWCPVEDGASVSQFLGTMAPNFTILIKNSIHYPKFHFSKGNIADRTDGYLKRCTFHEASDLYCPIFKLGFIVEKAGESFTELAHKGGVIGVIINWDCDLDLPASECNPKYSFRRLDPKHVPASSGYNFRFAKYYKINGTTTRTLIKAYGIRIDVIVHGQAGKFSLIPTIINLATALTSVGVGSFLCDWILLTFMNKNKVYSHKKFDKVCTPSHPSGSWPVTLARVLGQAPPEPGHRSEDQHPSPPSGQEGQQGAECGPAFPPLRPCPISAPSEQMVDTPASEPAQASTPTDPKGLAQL

For `Cc1cnc(-c2cc(OC3CC4(C3)CN(C(=O)OC(C)(C)C)C4)cc(C(=O)N[C@H](C)c3cnc(C(F)(F)F)nc3)c2)s1` [Example 146, tert-butyl 6-[3-(5-methyl-1,3-thiazol-2-yl)-5-({(1R)-1-[2-(trifluoromethyl)pyrimidin-5-yl]ethyl}carbamoyl)phenoxy]-2-azaspiro[3.3]heptane-2-carboxylate], which IC50 [1, 3] is on record?
The IC50 was 159 nM.

And the IC50 [2, 4]?
The IC50 was 45 nM.

For `Cc1cnc(-c2cc(O[C@@H]3CCOC3)cc(C(=O)N[C@H](C)c3cnc(C(F)(F)F)cn3)c2)s1` [Example 147, 3-(5-methyl-1,3-thiazol-2-yl)-5-[(3R)-tetrahydrofuran-3-yloxy]-N-{(1R)-1-[5-(trifluoromethyl)pyrazin-2-yl]ethyl}benzamide], which IC50 [1, 3] is on record?
The IC50 was 132 nM.

And the IC50 [2, 4]?
The IC50 was 6 nM.

With `Cc1cnc(-c2cc(OC3COC3)cc(C(=O)N[C@H](C)c3ccc(C(F)(F)F)nc3)c2)s1` [Example 148, 3-(5-methyl-1,3-thiazol-2-yl)-5-(oxetan-3-yloxy)-N-{(1R)-1-[6-(trifluoromethyl)pyridin-3-yl]ethyl}benzamide] as the molecule, how does the IC50 [1, 3] read?
The IC50 was 794 nM.

What about the IC50 [2, 4] of the same molecule?
Its IC50 is 33 nM.

Which IC50 [1, 3] does the source give for `Cc1cnc(-c2cc(OC34CCN(CC3)CC4)cc(C(=O)N[C@H](C)c3cnc(C(F)(F)F)nc3)c2)s1` [Example 149] here?
Its IC50 is 936 nM.

And the IC50 [2, 4]?
Its IC50 is 21 nM.

Which IC50 [1, 3] does the source give for `CC(=O)N1CCC(Oc2cc(C(=O)N[C@H](C)c3cnc(C(F)(F)F)nc3)cc(-c3ncc(C)s3)c2)CC1` [Example 150, 3-[(1-acetylpiperidin-4-yl)oxy]-5-(5-methyl-1,3-thiazol-2-yl)-N-{(1R)-1-[2-(trifluoromethyl)pyrimidin-5-yl]ethyl}benzamide] here?
The IC50 was 83 nM.

What about the IC50 [2, 4] of the same molecule?
The IC50 was 12 nM.

Which results are given for `Cc1cnc(-c2cc(O[C@H]3CCOC3)cc(C(=O)N[C@H](C)c3cnc(C(F)F)nc3)c2)s1` [Example 151, N-{(1R)-1-[2-(difluoromethyl)pyrimidin-5-yl]ethyl}-3-(5-methyl-1,3-thiazol-2-yl)-5-[(3S)-tetrahydrofuran-3-yloxy]benzamide]?
IC50 [1, 3]: 333 nM; IC50 [2, 4]: 31 nM

`Cc1cnc(-c2cc(OC3COC3)cc(C(=O)N[C@H](C)c3cnc(C(F)F)nc3)c2)s1` [Example 152, N-{(1R)-1-[2-(difluoromethyl)pyrimidin-5-yl]ethyl}-3-(5-methyl-1,3-thiazol-2-yl)-5-(oxetan-3-yloxy)benzamide] was tested. Which IC50 [1, 3] did it give?
Its IC50 is 523 nM.

What about the IC50 [2, 4] of the same molecule?
The IC50 was 45 nM.

How did the IC50 [1, 3] turn out when `Cc1cnc(-c2cc(O[C@@H]3CCOC3)cc(C(=O)N[C@H](C)c3cnc(C(F)F)nc3)c2)s1` [Example 153, N-{(1R)-1-[2-(difluoromethyl)pyrimidin-5-yl]ethyl}-3-(5-methyl-1,3-thiazol-2-yl)-5-[(3R)-tetrahydrofuran-3-yloxy]benzamide] was run?
The IC50 was 304 nM.

What about the IC50 [2, 4] of the same molecule?
The IC50 was 27 nM.

Which IC50 [1, 3] does the source give for `Cc1cnc(-c2cc(O[C@@H]3CCOC3)cc(C(=O)N[C@H](C)c3ccc(C(F)(F)F)nc3)c2)s1` [Example 157, 3-(5-methyl-1,3-thiazol-2-yl)-5-[(3R)-tetrahydrofuran-3-yloxy]-N-{(1R)-1-[6-(trifluoromethyl)pyridin-3-yl]ethyl}benzamide] here?
The IC50 was 534 nM.

And the IC50 [2, 4]?
Its IC50 is 17 nM.

For `Cc1cnc(-c2cc(OCCn3cncn3)cc(C(=O)N[C@H](C)c3ccc(C(F)(F)F)nc3)c2)s1` [Example 160, 3-(5-methyl-1,3-thiazol-2-yl)-5-[2-(1H-1,2,4-triazol-1-yl)ethoxy]-N-{(1R)-1-[6-(trifluoromethyl)pyridin-3-yl]ethyl}benzamide], which IC50 [1, 3] is on record?
Its IC50 is 1010 nM.

And the IC50 [2, 4]?
Its IC50 is 28 nM.

`Cc1cnc(-c2cc(OC3COC3)cc(C(=O)N[C@H](C)c3ccc(C(F)(F)F)nn3)c2)s1` [Example 161, 3-(5-methyl-1,3-thiazol-2-yl)-5-(oxetan-3-yloxy)-N-{(1R)-1-[6-(trifluoromethyl)pyridazin-3-yl]ethyl}benzamide] was tested. Which IC50 [1, 3] did it give?
The IC50 was 632 nM.

What about the IC50 [2, 4] of the same molecule?
Its IC50 is 32 nM.

Which IC50 [1, 3] does the source give for `Cc1cnc(-c2cc(OC3COC3)cc(C(=O)N[C@H](C)c3ccc(C(F)F)nc3)c2)s1` [Example 164] here?
Its IC50 is 1110 nM.

And the IC50 [2, 4]?
Its IC50 is 60 nM.

What does the source list for `Cc1cnc(-c2cc(O[C@H]3C[C@H](N(C)C)C3)cc(C(=O)N[C@H](C)c3cnc(C(F)(F)F)nc3)c2)s1` [Example 165, 3-{[trans-3-(dimethylamino)cyclobutyl]oxy}-5-(5-methyl-1,3-thiazol-2-yl)-N-{(1R)-1-[2-(trifluoromethyl)pyrimidin-5-yl]ethyl}benzamide]?
IC50 [1, 3]: 1920 nM; IC50 [2, 4]: 81 nM

Which results are given for `Cc1cnc(-c2cc(O[C@@H]3CCOC3)cc(C(=O)NCc3cnc(C(F)(F)F)nc3)c2)s1` [Example 166, 3-(5-methyl-1,3-thiazol-2-yl)-5-[(3R)-tetrahydrofuran-3-yloxy]-N-{[2-(trifluoromethyl)pyrimidin-5-yl]methyl}benzamide]?
IC50 [1, 3]: 461 nM; IC50 [2, 4]: 40 nM

What does the source list for `Cc1cnc(-c2cc(OC3COC3)cc(C(=O)NCc3cnc(C(F)(F)F)nc3)c2)s1` [Example 167, 3-(5-methyl-1,3-thiazol-2-yl)-5-(oxetan-3-yloxy)-N-{[2-(trifluoromethyl)pyrimidin-5-yl]methyl}benzamide]?
IC50 [1, 3]: 893 nM; IC50 [2, 4]: 72 nM

Which IC50 ([1]; hP2X2/3 IC50 (nM)) does the source give for `Cc1cnc(-c2cc(O[C@H]3CN4CCC3CC4)cc(C(=O)N[C@H](C)c3cnc(C(F)(F)F)nc3)c2)s1` [Example 168, 3-[(3R)-1-azabicyclo[2.2.2]oct-3-yloxy]-5-(5-methyl-1,3-thiazol-2-yl)-N-{(1R)-1-[2-(trifluoromethyl)pyrimidin-5-yl]ethyl}benzamide] here?
The IC50 was 1600 nM.

And the IC50 [2]?
The IC50 was 19 nM.

Which results are given for `CCc1cnc(-c2cc(OC3COC3)cc(C(=O)N[C@H](C)c3cnc(C(F)(F)F)nc3)c2)s1` [Example 169, 3-(5-ethyl-1,3-thiazol-2-yl)-5-(oxetan-3-yloxy)-N-{(1R)-1-[2-(trifluoromethyl)pyrimidin-5-yl]ethyl}benzamide]?
IC50 [1, 3]: 70 nM; IC50 [2, 4]: 9 nM

Which results are given for `Cc1ccc(Oc2cc(C(=O)N[C@H](C)c3cnc(C(F)(F)F)nc3)cc(-c3ncc(C)s3)c2)nn1` [Example 170, 3-[(6-methylpyridazin-3-yl)oxy]-5-(5-methyl-1,3-thiazol-2-yl)-N-{(1R)-1-[2-(trifluoromethyl)pyrimidin-5-yl]ethyl}benzamide]?
IC50 [1, 3]: 2020 nM; IC50 [2, 4]: 165 nM

How did the IC50 [1, 3] turn out when `Cc1cnc(-c2cc(O[C@@H]3CCOC3)cc(C(=O)N[C@H](C)c3ccc(C(F)F)nc3)c2)s1` [Example 171, N-{(1R)-1-[6-(difluoromethyl)pyridin-3-yl]ethyl}-3-(5-methyl-1,3-thiazol-2-yl)-5-[(3R)-tetrahydrofuran-3-yloxy]benzamide] was run?
Its IC50 is 573 nM.

And the IC50 [2, 4]?
The IC50 was 26 nM.

What does the source list for `Cc1cnc(-c2cc(O[C@H]3CN4CCC3CC4)cc(C(=O)N[C@H](C)c3ccc(C(F)(F)F)nc3)c2)s1` [Example 172, 3-[(3R)-1-azabicyclo[2.2.2]oct-3-yloxy]-5-(5-methyl-1,3-thiazol-2-yl)-N-{(1R)-1-[6-(trifluoromethyl)pyridin-3-yl]ethyl}benzamide]?
IC50 ([1]; hP2X2/3 IC50 (nM)): 2110 nM; IC50 [2]: 31 nM

How did the IC50 ([1]; hP2X2/3 IC50 (nM)) turn out when `CCc1cnc(-c2cc(O[C@@H]3CN4CCC3CC4)cc(C(=O)N[C@H](C)c3cnc(C(F)(F)F)nc3)c2)s1` [Example 173, 3-[(3S)-1-azabicyclo[2.2.2]oct-3-yloxy]-5-(5-ethyl-1,3-thiazol-2-yl)-N-{(1R)-1-[2-(trifluoromethyl)pyrimidin-5-yl]ethyl}benzamide] was run?
The IC50 was 311 nM.

What about the IC50 [2] of the same molecule?
Its IC50 is 5 nM.

Which results are given for `CCc1cnc(-c2cc(O[C@H]3CN4CCC3CC4)cc(C(=O)N[C@H](C)c3cnc(C(F)(F)F)nc3)c2)s1` [Example 174, 3-[(3R)-1-azabicyclo[2.2.2]oct-3-yloxy]-5-(5-ethyl-1,3-thiazol-2-yl)-N-{(1R)-1-[2-(trifluoromethyl)pyrimidin-5-yl]ethyl}benzamide]?
IC50 ([1]; hP2X2/3 IC50 (nM)): 790 nM; IC50 [2]: 11 nM

With `Cc1cnc(-c2cc(O[C@@H]3CN4CCC3CC4)cc(C(=O)N[C@H](C)c3ccc(C(F)(F)F)nc3)c2)s1` [Example 175, 3-[(3S)-1-azabicyclo[2.2.2]oct-3-yloxy]-5-(5-methyl-1,3-thiazol-2-yl)-N-{(1R)-1-[6-(trifluoromethyl)pyridin-3-yl]ethyl}benzamide] as the molecule, how does the IC50 ([1]; hP2X2/3 IC50 (nM)) read?
The IC50 was 1270 nM.

What about the IC50 [2] of the same molecule?
The IC50 was 23 nM.

`Cc1cnc(-c2cc(Oc3nnc(C)s3)cc(C(=O)N[C@H](C)c3ccc(C(F)(F)F)nc3)c2)s1` [Example 176, 3-[(5-methyl-1,3,4-thiadiazol-2-yl)oxy]-5-(5-methyl-1,3-thiazol-2-yl)-N-{(1R)-1-[6-(trifluoromethyl)pyridin-3-yl]ethyl}benzamide] was tested. Which IC50 [1, 3] did it give?
The IC50 was 607 nM.

What about the IC50 [2, 4] of the same molecule?
Its IC50 is 29 nM.

`Cc1cnc(-c2cc(OC[C@H]3COCCO3)cc(C(=O)N[C@H](C)c3cnc(C(F)(F)F)nc3)c2)s1` [Example 178, 3-[(2R)-1,4-dioxan-2-ylmethoxy]-5-(5-methyl-1,3-thiazol-2-yl)-N-{(1R)-1-[2-(trifluoromethyl)pyrimidin-5-yl]ethyl}benzamide] was tested. Which IC50 [1, 3] did it give?
The IC50 was 1880 nM.

What about the IC50 [2, 4] of the same molecule?
Its IC50 is 39 nM.

What does the source list for `Cc1cnc(-c2cc(OC[C@H]3COCCO3)cc(C(=O)N[C@H](C)c3ccc(C(F)(F)F)nn3)c2)s1` [Example 179, 3-[(2R)-1,4-dioxan-2-ylmethoxy]-5-(5-methyl-1,3-thiazol-2-yl)-N-{(1R)-1-[6-(trifluoromethyl)pyridazin-3-yl]ethyl} benzamide]?
IC50 [1, 3]: 703 nM; IC50 [2, 4]: 13 nM

How did the IC50 [1, 3] turn out when `Cc1cnc(-c2cc(OC[C@@H]3COCCO3)cc(C(=O)N[C@H](C)c3ccc(C(F)(F)F)nc3)c2)s1` [Example 180, 3-[(2S)-1,4-dioxan-2-ylmethoxy]-5-(5-methyl-1,3-thiazol-2-yl)-N-{(1R)-1-[6-(trifluoromethyl)pyridin-3-yl]ethyl}benzamide] was run?
Its IC50 is 1400 nM.

And the IC50 [2, 4]?
Its IC50 is 31 nM.

What does the source list for `Cc1cnc(-c2cc(OC[C@@H]3COCCO3)cc(C(=O)N[C@H](C)c3cnc(C(F)(F)F)nc3)c2)s1` [Example 181, 3-[(2S)-1,4-dioxan-2-ylmethoxy]-5-(5-methyl-1,3-thiazol-2-yl)-N-{(1R)-1-[2-(trifluoromethyl)pyrimidin-5-yl]ethyl}benzamide]?
IC50 [1, 3]: 1180 nM; IC50 [2, 4]: 19 nM
